Measured values from the kinase profiling compilation of Christmann-Franck et al. (2016).
Where “and” joins values, the source holds several entries; their conditions need not be identical. Equal values may be shown once.

These compounds were tested against TTK (human) (UniProt P33981) (assay: radiometric filter-binding kinase assay, Kinase HotSpot). Details: compound 0.5 µM; ATP 10 µM.
`COc1cc2c(N3CCN(C(=O)Nc4ccc(OC(C)C)cc4)CC3)ncnc2cc1OCCCN1CCCCC1` was tested, and the residual activity was 100%.
For `O=c1cc(N2CCOCC2)oc2c(-c3ccccc3)cccc12`, the residual activity was 103%.
In the case of `Nc1ncnc2c1cnn2-c1ccccc1`, the residual activity is reported as 90.6%.

Each compound was assayed against EPHA6 (human) (UniProt Q9UF33) in the same assay as above. Details: compound 0.5 µM; ATP 10 µM.
EPHA6 (human), sequence (Q9UF33 whole entry, looked up): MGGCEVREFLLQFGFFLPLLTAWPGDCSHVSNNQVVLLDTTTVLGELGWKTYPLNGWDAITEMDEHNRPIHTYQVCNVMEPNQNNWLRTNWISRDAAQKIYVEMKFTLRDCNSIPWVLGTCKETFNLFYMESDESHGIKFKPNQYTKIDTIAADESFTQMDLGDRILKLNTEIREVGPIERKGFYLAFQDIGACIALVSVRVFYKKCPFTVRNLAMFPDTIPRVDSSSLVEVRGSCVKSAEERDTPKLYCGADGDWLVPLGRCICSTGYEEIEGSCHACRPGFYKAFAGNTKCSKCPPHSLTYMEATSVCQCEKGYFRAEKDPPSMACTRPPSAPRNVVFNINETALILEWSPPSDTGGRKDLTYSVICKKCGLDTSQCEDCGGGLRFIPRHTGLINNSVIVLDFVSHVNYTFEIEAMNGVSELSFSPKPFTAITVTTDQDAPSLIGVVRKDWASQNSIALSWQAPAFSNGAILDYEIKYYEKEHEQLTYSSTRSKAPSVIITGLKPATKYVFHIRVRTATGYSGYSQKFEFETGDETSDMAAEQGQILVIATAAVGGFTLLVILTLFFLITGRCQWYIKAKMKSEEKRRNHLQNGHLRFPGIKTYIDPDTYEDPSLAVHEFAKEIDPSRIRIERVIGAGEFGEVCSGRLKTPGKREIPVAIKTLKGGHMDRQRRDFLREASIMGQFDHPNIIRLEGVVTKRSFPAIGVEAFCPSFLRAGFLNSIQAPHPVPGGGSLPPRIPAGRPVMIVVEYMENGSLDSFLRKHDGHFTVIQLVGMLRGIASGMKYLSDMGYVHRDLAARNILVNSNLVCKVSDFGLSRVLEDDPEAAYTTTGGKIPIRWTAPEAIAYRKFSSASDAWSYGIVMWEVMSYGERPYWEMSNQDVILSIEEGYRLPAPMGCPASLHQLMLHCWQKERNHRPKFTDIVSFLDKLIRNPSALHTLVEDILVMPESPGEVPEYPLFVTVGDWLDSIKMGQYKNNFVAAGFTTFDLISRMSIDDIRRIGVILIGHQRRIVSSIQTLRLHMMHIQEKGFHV
In the case of `N#Cc1c(NC(=O)c2cccc3ccccc23)sc2c1CCCC2`, the residual activity is reported as 93.4%.
`COc1cc2c(N3CCN(C(=O)Nc4ccc(OC(C)C)cc4)CC3)ncnc2cc1OCCCN1CCCCC1` gave a residual activity of 103%.
Compound `O=c1cc(N2CCOCC2)oc2c(-c3ccccc3)cccc12` has a residual activity of 87%.
In the case of `Nc1ncnc2c1cnn2-c1ccccc1`, the residual activity is reported as 83.2%.

These compounds were tested against BRAF (human) (UniProt P15056) in the same assay as above. Details: compound 0.5 µM; ATP 10 µM.
Work on `N#Cc1c(NC(=O)c2cccc3ccccc23)sc2c1CCCC2` yielded a residual activity of 95.2%.
`O=c1cc(N2CCOCC2)oc2c(-c3ccccc3)cccc12` was tested, and the residual activity was 95.9%.
For `Nc1ncnc2c1cnn2-c1ccccc1`, the residual activity was 93.6%.

Each compound was assayed against CLK3 (human) (UniProt P49761) in the same assay as above. Details: compound 0.5 µM; ATP 10 µM.
CLK3 (human), sequence (P49761 whole entry, looked up): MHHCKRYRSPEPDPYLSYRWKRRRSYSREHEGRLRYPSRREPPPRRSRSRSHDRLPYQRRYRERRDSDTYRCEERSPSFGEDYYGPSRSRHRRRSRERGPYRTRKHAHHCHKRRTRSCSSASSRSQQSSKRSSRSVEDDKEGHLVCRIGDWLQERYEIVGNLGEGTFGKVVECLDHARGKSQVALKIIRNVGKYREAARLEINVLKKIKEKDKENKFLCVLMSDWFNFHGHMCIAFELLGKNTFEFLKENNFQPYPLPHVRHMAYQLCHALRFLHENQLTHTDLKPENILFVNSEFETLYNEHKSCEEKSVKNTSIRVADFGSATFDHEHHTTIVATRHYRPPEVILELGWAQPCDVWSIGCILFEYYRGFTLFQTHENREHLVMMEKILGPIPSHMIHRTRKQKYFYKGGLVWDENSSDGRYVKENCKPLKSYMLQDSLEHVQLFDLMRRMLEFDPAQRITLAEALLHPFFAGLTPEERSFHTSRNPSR
`N#Cc1c(NC(=O)c2cccc3ccccc23)sc2c1CCCC2` gave a residual activity of 99.3%.
`COc1cc2c(N3CCN(C(=O)Nc4ccc(OC(C)C)cc4)CC3)ncnc2cc1OCCCN1CCCCC1` was tested, and the residual activity was 93.4%.
`O=c1cc(N2CCOCC2)oc2c(-c3ccccc3)cccc12` was tested, and the residual activity was 107%.
`Nc1ncnc2c1cnn2-c1ccccc1` gave a residual activity of 96.1%.

Each compound was assayed against PRKG1 (human) (UniProt Q13976) in the same assay as above. Details: compound 0.5 µM; ATP 10 µM.
With `N#Cc1c(NC(=O)c2cccc3ccccc23)sc2c1CCCC2` the residual activity was 101% and 94.6%.
With `COc1cc2c(N3CCN(C(=O)Nc4ccc(OC(C)C)cc4)CC3)ncnc2cc1OCCCN1CCCCC1` the residual activity was 102% and 82.5%.
With `O=c1cc(N2CCOCC2)oc2c(-c3ccccc3)cccc12` the residual activity was 104% and 105%.
In the case of `Nc1ncnc2c1cnn2-c1ccccc1`, the residual activity is reported as 107% and 91.3%.

These compounds were tested against EPHB3 (human) (UniProt P54753) in the same assay as above. Details: compound 0.5 µM; ATP 10 µM.
EPHB3 (human), sequence (P54753 whole entry, looked up): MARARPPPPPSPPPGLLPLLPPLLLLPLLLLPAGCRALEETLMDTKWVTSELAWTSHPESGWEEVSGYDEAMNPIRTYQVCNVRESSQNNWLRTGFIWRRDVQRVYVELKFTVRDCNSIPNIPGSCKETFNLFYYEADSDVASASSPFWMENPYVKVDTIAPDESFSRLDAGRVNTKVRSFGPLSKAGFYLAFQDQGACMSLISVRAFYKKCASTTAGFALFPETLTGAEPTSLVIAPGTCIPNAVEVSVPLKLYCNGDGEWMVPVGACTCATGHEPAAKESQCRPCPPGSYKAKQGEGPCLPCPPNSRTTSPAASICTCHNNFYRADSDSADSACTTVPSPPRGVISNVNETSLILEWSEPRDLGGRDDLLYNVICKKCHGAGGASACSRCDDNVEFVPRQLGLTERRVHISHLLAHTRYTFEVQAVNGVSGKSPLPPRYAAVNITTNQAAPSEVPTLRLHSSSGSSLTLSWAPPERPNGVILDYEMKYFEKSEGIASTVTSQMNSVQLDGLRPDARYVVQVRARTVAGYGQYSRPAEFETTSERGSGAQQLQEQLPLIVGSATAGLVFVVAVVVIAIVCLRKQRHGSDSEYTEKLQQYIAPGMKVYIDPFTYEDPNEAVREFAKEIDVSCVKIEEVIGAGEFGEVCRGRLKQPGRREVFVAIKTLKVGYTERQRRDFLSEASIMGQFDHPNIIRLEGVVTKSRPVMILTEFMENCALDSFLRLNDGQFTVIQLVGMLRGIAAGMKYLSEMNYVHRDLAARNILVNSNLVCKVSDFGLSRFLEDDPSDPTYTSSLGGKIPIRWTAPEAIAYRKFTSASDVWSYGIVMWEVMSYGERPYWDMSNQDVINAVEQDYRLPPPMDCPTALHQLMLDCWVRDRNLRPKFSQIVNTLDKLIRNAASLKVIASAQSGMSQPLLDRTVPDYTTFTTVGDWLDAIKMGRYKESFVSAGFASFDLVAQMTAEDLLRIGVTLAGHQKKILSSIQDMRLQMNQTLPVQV
`N#Cc1c(NC(=O)c2cccc3ccccc23)sc2c1CCCC2` was tested, and the residual activity was 95.9%.
Work on `COc1cc2c(N3CCN(C(=O)Nc4ccc(OC(C)C)cc4)CC3)ncnc2cc1OCCCN1CCCCC1` yielded a residual activity of 84.2%.
For `O=c1cc(N2CCOCC2)oc2c(-c3ccccc3)cccc12`, the residual activity was 94.6%.
For `Nc1ncnc2c1cnn2-c1ccccc1`, the residual activity was 93.5%.

What follows are compounds tested against TSSK2 (human) (UniProt Q96PF2) in the same assay as above. Details: compound 0.5 µM; ATP 10 µM.
TSSK2 (human), sequence (Q96PF2 whole entry, looked up): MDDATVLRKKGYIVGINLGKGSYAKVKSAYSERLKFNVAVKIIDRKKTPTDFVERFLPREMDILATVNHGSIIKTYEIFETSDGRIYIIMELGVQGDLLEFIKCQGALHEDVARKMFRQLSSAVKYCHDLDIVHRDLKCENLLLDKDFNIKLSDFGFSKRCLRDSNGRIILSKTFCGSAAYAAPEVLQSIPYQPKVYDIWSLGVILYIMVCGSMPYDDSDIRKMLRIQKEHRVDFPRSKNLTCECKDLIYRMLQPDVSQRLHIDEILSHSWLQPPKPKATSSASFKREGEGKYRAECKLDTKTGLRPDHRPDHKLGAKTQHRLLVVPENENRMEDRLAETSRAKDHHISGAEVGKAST
Work on `N#Cc1c(NC(=O)c2cccc3ccccc23)sc2c1CCCC2` yielded a residual activity of 104%.
In the case of `COc1cc2c(N3CCN(C(=O)Nc4ccc(OC(C)C)cc4)CC3)ncnc2cc1OCCCN1CCCCC1`, the residual activity is reported as 96.6%.
Work on `O=c1cc(N2CCOCC2)oc2c(-c3ccccc3)cccc12` yielded a residual activity of 91.4%.
`Nc1ncnc2c1cnn2-c1ccccc1` was tested, and the residual activity was 106%.

What follows are compounds tested against PAK7 (human) (UniProt Q9P286) in the same assay as above. Details: compound 0.5 µM; ATP 10 µM.
`N#Cc1c(NC(=O)c2cccc3ccccc23)sc2c1CCCC2` was tested, and the residual activity was 103%.
For `COc1cc2c(N3CCN(C(=O)Nc4ccc(OC(C)C)cc4)CC3)ncnc2cc1OCCCN1CCCCC1`, the residual activity was 87.5%.
`O=c1cc(N2CCOCC2)oc2c(-c3ccccc3)cccc12` showed a residual activity of 104%.
For `Nc1ncnc2c1cnn2-c1ccccc1`, the residual activity was 97%.

The compounds below were run against CHEK2 (human) (UniProt O96017) in the same assay as above. Details: compound 0.5 µM; ATP 10 µM.
CHEK2 (human), sequence (O96017 whole entry, looked up): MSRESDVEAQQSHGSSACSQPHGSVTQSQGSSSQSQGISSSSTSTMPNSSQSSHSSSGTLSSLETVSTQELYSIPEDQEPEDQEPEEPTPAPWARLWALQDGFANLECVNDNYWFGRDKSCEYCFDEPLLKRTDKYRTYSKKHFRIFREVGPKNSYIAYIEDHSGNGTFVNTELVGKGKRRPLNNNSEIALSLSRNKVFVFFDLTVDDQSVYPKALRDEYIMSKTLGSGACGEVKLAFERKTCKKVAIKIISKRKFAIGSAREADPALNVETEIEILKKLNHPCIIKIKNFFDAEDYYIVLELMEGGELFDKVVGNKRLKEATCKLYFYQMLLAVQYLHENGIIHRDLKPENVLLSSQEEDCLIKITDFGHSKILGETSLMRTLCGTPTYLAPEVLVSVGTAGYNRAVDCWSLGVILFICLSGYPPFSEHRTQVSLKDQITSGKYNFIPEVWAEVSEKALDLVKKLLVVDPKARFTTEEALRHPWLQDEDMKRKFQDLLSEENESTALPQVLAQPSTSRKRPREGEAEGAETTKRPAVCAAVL
`N#Cc1c(NC(=O)c2cccc3ccccc23)sc2c1CCCC2` showed a residual activity of 98.5%.
In the case of `COc1cc2c(N3CCN(C(=O)Nc4ccc(OC(C)C)cc4)CC3)ncnc2cc1OCCCN1CCCCC1`, the residual activity is reported as 100%.
For `O=c1cc(N2CCOCC2)oc2c(-c3ccccc3)cccc12`, the residual activity was 93.7%.
In the case of `Nc1ncnc2c1cnn2-c1ccccc1`, the residual activity is reported as 95.5%.

These compounds were tested against KDR (human) (UniProt P35968) in the same assay as above. Details: compound 0.5 µM; ATP 10 µM.
`N#Cc1c(NC(=O)c2cccc3ccccc23)sc2c1CCCC2` was tested, and the residual activity was 100%.
For `COc1cc2c(N3CCN(C(=O)Nc4ccc(OC(C)C)cc4)CC3)ncnc2cc1OCCCN1CCCCC1`, the residual activity was 106%.
In the case of `O=c1cc(N2CCOCC2)oc2c(-c3ccccc3)cccc12`, the residual activity is reported as 87.2%.
`Nc1ncnc2c1cnn2-c1ccccc1` was tested, and the residual activity was 98.8%.

These compounds were tested against JAK3 JH1 JH2 (human) (UniProt P52333) in the same assay as above. Details: compound 0.5 µM; ATP 10 µM.
JAK3 JH1 JH2 (human), sequence (P52333 whole entry, looked up): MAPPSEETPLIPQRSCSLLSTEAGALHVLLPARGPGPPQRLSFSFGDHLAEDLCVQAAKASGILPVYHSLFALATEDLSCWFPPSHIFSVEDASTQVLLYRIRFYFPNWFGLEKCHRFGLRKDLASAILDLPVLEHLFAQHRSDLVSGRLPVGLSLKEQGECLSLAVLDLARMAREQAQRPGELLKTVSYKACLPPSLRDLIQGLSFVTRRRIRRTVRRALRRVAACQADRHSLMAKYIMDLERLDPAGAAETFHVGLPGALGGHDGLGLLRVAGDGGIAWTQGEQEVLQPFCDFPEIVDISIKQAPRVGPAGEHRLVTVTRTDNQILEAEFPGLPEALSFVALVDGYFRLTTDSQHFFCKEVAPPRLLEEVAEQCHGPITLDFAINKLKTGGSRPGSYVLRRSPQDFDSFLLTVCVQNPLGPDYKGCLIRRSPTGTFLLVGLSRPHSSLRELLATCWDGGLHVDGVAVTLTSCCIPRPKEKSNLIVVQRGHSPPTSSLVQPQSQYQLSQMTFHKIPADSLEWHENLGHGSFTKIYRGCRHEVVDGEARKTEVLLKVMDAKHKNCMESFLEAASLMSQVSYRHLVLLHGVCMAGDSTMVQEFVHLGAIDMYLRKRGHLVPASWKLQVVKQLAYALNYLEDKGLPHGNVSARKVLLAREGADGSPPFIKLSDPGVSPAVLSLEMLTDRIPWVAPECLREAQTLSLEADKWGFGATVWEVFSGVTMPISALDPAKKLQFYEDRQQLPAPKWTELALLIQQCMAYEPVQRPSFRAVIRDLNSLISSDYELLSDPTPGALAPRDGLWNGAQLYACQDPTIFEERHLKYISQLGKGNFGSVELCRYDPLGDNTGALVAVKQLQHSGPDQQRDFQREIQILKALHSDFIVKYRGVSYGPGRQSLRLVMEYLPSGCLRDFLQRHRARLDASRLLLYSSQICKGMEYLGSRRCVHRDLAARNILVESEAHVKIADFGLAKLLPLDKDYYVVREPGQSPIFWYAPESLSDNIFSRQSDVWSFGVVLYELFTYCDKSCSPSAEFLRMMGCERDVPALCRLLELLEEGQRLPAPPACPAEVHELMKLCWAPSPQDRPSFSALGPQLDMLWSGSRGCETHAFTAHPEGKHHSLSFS
Compound `N#Cc1c(NC(=O)c2cccc3ccccc23)sc2c1CCCC2` has a residual activity of 101%.
With `COc1cc2c(N3CCN(C(=O)Nc4ccc(OC(C)C)cc4)CC3)ncnc2cc1OCCCN1CCCCC1` the residual activity was 99.8%.
Compound `O=c1cc(N2CCOCC2)oc2c(-c3ccccc3)cccc12` has a residual activity of 103%.
In the case of `Nc1ncnc2c1cnn2-c1ccccc1`, the residual activity is reported as 97.4%.
